Results reported in paper PMC7913210 (Pharmaceutics, 2021).

Experiments:
[1] = Parent-metabolite PK model (non-linear mixed-effect modeling) after SC LHA administration; type: in vivo, Sprague-Dawley rats
Procedure: In addition, a combined transit model with first-order absorption was evaluated to better describe absorption phase. In the transit model, the optimal number of transit compartments (NTR) and the mean transit time (MTT) were estimated. The transit model introduced three parameters—Ktr, NTR, and MTT. Two of these three parameters were estimated. The relationship of these parameters is shown in the following equation: MTT= (NTR+1)/Ktr The inter-individual variability (IIV) was assessed using an exponential variability model as following equation: Pi=Ptv ×exp (ETA) where Pi represents the value of the individual PK parameter, Ptv is a typical value for P, and ETA indicates an interindividual random effect with the mean of zero and variance of ω^2. Residual random variability (ε) was calculated using a proportional error model for the three types of observations. Optimal model selection was guided by changes in diagnostic values including twice the negative log like (−2LL), Akaike information Criterion (AIC), Baysian Information Criteria (BIC), visual inspection of various diagnostic plots (goodness of fit plot), and precision of parameter estimates. The visual predictive check (VPC) and boot strap analysis was conducted for non-parametric evaluation of the model. Graphical diagnostics including basic goodness-of-fit plot and other accessory plots were used for single run-based diagnostics during model development. For the final model, the robustness and predictive performance were evaluated using multiple run-based diagnostics such as bootstrapping. A bootstrap procedure was conducted with a total of 1000 bootstrap-resampled datasets from the original dataset. Bootstrap results of median and 95% confidence intervals (CIs, […]) were compared with final parameter estimates. The 95% confidence intervals of parameters obtained from this step were compared with final parameter estimates.

[2] = cited from earlier work
[3] = SC LHA, rats, model estimate (fixed effect)

CLm2/F, Apparent Metabolite clearance ([1]; SC LHA, rats, second metabolite (GX), model estimate) [L/h]	Fm2, Fraction of the first metabolite converted to second metabolite ([1]; SC LHA, rats, MEGX to GX, model estimate)	CLm1/F, Apparent Metabolite (MEGX) clearance [1, 3] [L/h]	MEGX converted into GX ([1]; model prediction, hyaluronic acid pre-incorporated lidocaine injected subcutaneously)	Compound	potency as anti-arrhythmic agent relative to lidocaine [2]	Vmax, Maximum rate of reaction ([1]; SC LHA, rats, Michaelis-Menten elimination of lidocaine, model estimate)	MTT, Mean Transit Time [1, 3] [h]	Ntr, Number of transit compartments [1, 3]
1.09				Cc1cccc(C)c1NC(=O)CN [GX, glycylxylidide]	~10%			
	0.47	14.94	about 47%	CCNCC(=O)Nc1c(C)cccc1C [MEGX, monoethylglycylxylidide]	approximately 80%			
				CCN(CC)CC(=O)Nc1c(C)cccc1C [Lidocaine, reference compound]		423,962.94 nmol/h	0.64	4.97
